# Results: ChEMBL document CHEMBL1201862, “PubChem BioAssay data set” (2004)
#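 Briefly, cells in 96-well plates were exposed to five compound concentrations for 48 h, and endpoints were estimated by linear interpolation. GI50 is the concentration that inhibits growth by half.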 Active and inactive are the calls of the source. Cut-off read from the data, not from the text of the source: active = GI50 up to about 1.1 µM and inactive = higher.
# Key:
# Assay in all cases: NCI anticancer screen, dose series, 48 h
# 786-0 = system: 786-0
# A498 = system: A498
# A549 = system: A549
# ACHN = system: ACHN
# BT-549 = system: BT-549
# CAKI-1 = system: CAKI-1
# CCRF-CEM = system: CCRF-CEM
# COLO 205 = system: COLO 205
# DU-145 = system: DU-145
# EKVX = system: EKVX
# HCC 2998 = system: HCC 2998
# HCT-116 = system: HCT-116
# HCT-15 = system: HCT-15
# HL-60 = system: HL-60
# HOP-62 = system: HOP-62
# HOP-92 = system: HOP-92
# HT-29 = system: HT-29
# IGROV-1 = system: IGROV-1
# K562 = system: K562
# KM12 = system: KM12
# M14 = system: M14
# MCF7 = system: MCF7
# MDA-MB-231 = system: MDA-MB-231
# MDA-MB-435 = system: MDA-MB-435
# MDA-N = system: MDA-N
# MOLT-4 = system: MOLT-4
# Malme-3M = system: Malme-3M
# NCI-H226 = system: NCI-H226
# NCI-H23 = system: NCI-H23
# NCI-H460 = system: NCI-H460
# NCI-H522 = system: NCI-H522
# NCI/ADR-RES = system: NCI/ADR-RES
# OVCAR-3 = system: OVCAR-3
# OVCAR-4 = system: OVCAR-4
# OVCAR-5 = system: OVCAR-5
# OVCAR-8 = system: OVCAR-8
# PC-3 = system: PC-3
# RPMI-8226 = system: RPMI-8226
# RXF 393 = system: RXF 393
# SF-268 = system: SF-268
# SF-295 = system: SF-295
# SF-539 = system: SF-539
# SK-MEL-28 = system: SK-MEL-28
# SK-MEL-2 = system: SK-MEL-2
# SK-OV-3 = system: SK-OV-3
# SN12C = system: SN12C
# SNB-19 = system: SNB-19
# SNB-75 = system: SNB-75
# SR = system: SR
# SW-620 = system: SW-620
# T47D = system: T47D
# U-251 = system: U-251
# UACC-257 = system: UACC-257
# UACC-62 = system: UACC-62
# UO-31 = system: UO-31
smiles,measurement,setting,value
COC1(OC)N=C(N)C2(C#N)C3(C(=O)N(C(C)C)N=C3C)C12C#N (stereo not given),GI50,786-0,> 100 µM (inactive)
same,GI50,A498,> 100 µM (inactive)
same,GI50,A549,> 100 µM (inactive)
same,GI50,ACHN,> 100 µM (inactive)
same,GI50,BT-549,> 100 µM (inactive)
same,GI50,CAKI-1,> 100 µM (inactive)
same,GI50,CCRF-CEM,> 100 µM (inactive)
same,GI50,COLO 205,> 100 µM (inactive)
same,GI50,DU-145,> 100 µM (inactive)
same,GI50,EKVX,> 100 µM (inactive)
same,GI50,HCC 2998,> 100 µM (inactive)
same,GI50,HCT-116,> 100 µM (inactive)
same,GI50,HCT-15,> 100 µM
same,GI50,HL-60,> 100 µM (inactive)
same,GI50,HOP-62,> 100 µM (inactive)
same,GI50,HOP-92,> 100 µM (inactive)
same,GI50,HT-29,> 100 µM (inactive)
same,GI50,IGROV-1,> 100 µM (inactive)
same,GI50,K562,> 100 µM (inactive)
same,GI50,KM12,> 100 µM (inactive)
same,GI50,M14,> 100 µM (inactive)
same,GI50,MCF7,> 100 µM (inactive)
same,GI50,MDA-MB-231,> 100 µM (inactive)
same,GI50,MDA-MB-435,> 100 µM (inactive)
same,GI50,MDA-N,> 100 µM (inactive)
same,GI50,MOLT-4,> 100 µM (inactive)
same,GI50,Malme-3M,> 100 µM (inactive)
same,GI50,NCI-H226,> 100 µM (inactive)
same,GI50,NCI-H23,> 100 µM (inactive)
same,GI50,NCI-H460,> 100 µM (inactive)
same,GI50,NCI-H522,> 100 µM (inactive)
same,GI50,NCI/ADR-RES,> 100 µM (inactive)
same,GI50,OVCAR-3,49.7 µM (inactive)
same,GI50,OVCAR-4,> 100 µM (inactive)
same,GI50,OVCAR-5,> 100 µM (inactive)
same,GI50,OVCAR-8,> 100 µM (inactive)
same,GI50,PC-3,> 100 µM (inactive)
same,GI50,RPMI-8226,> 100 µM (inactive)
same,GI50,RXF 393,> 100 µM (inactive)
same,GI50,SF-268,> 100 µM (inactive)
same,GI50,SF-295,> 100 µM (inactive)
same,GI50,SF-539,> 100 µM (inactive)
same,GI50,SK-MEL-28,> 100 µM (inactive)
same,GI50,SK-MEL-2,> 100 µM (inactive)
same,GI50,SK-OV-3,> 100 µM (inactive)
same,GI50,SN12C,> 100 µM (inactive)
same,GI50,SNB-19,> 100 µM (inactive)
same,GI50,SNB-75,> 100 µM (inactive)
same,GI50,SR,> 100 µM (inactive)
same,GI50,SW-620,> 100 µM (inactive)
same,GI50,T47D,> 100 µM (inactive)
same,GI50,U-251,> 100 µM (inactive)
same,GI50,UACC-257,> 100 µM (inactive)
same,GI50,UACC-62,> 100 µM (inactive)
same,GI50,UO-31,> 100 µM (inactive)
